In patent publication US20260365634A1, “HERBICIDAL PYRAZOLE COMPOUNDS” (SYNGENTA CROP PROTECTION AG, priority 2022, published 2026):

Assays:
Format in all cases: in vivo
Conditions in all cases: 250 g/ha, evaluated after 13 days
[1] = tested on: Amaranthus palmeri (AMAPA); assay: Post-emergence herbicidal glasshouse test
Protocol: (§1) Seeds of a variety of test species are sown in standard soil in pots Amaranthus palmeri (AMAPA), Amaranthus retoflexus (AMARE), Echinochloa crus-galli (ECHCG), Ipomoea hederacea (IPOHE), Setaria faberi (SETFA). After cultivation for one day (pre-emergence) or after 8 days cultivation (post-emergence) under controlled conditions in a glasshouse (at 24/16 °C, day/night; 14 hours light; 65% humidity), the plants are sprayed with an aqueous spray solution derived from the formulation of the technical active ingredient in acetone/water (50:50) solution containing 0.5% Tween 20 (polyoxyethelyene sorbitan monolaurate, CAS RN 9005-64-5). Compounds are applied at 250 g/ha unless otherwise stated. The test plants are then grown in a glasshouse under controlled conditions in a glasshouse (at 24/16 °C, day/night; 14 hours light; 65% humidity) and watered twice daily. After 13 days for pre and post-emergence, the test is evaluated for the percentage damage caused to the plant. The biological activities are shown in the following table on a five-point scale (5=81-100%; 4=61-80%; 3=41-60%; 2=21-40%; 1=0-20%).

[2] = tested on: Amaranthus retoflexus (AMARE); assay: Post-emergence herbicidal glasshouse test
Protocol: as §1

[3] = tested on: Echinochloa crus-galli (ECHCG); assay: Post-emergence herbicidal glasshouse test
Protocol: as §1

[4] = tested on: Ipomoea hederacea (IPOHE); assay: Post-emergence herbicidal glasshouse test
Protocol: as §1

[5] = tested on: Amaranthus palmeri (AMAPA); assay: Pre-emergence herbicidal glasshouse test
Protocol: as §1

[6] = tested on: Amaranthus retoflexus (AMARE); assay: Pre-emergence herbicidal glasshouse test
Protocol: as §1

[7] = tested on: Echinochloa crus-galli (ECHCG); assay: Pre-emergence herbicidal glasshouse test
Protocol: as §1

[8] = tested on: Ipomoea hederacea (IPOHE); assay: Pre-emergence herbicidal glasshouse test
Protocol: as §1

[9] = tested on: Setaria faberi (SETFA); assay: Post-emergence herbicidal glasshouse test
Protocol: as §1

[10] = tested on: Setaria faberi (SETFA); assay: Pre-emergence herbicidal glasshouse test
Protocol: as §1

Row | SMILES | percentage damage caused to the plant (five-point scale), AMAPA [1] | percentage damage caused to the plant (five-point scale), AMARE [2] | percentage damage caused to the plant (five-point scale), ECHCG [3] | percentage damage caused to the plant (five-point scale), IPOHE [4] | percentage damage caused to the plant (five-point scale), AMAPA [5] | percentage damage caused to the plant (five-point scale), AMARE [6] | percentage damage caused to the plant (five-point scale), ECHCG [7] | percentage damage caused to the plant (five-point scale), IPOHE [8] | percentage damage caused to the plant (five-point scale), SETFA [9] | percentage damage caused to the plant (five-point scale), SETFA [10]
1 | FC(F)c1cc(Cc2ncc(Cl)cn2)n(CCC2CCOC2)n1 (stereo not drawn) [Compound 1.001] | 1 (0-20%) | 1 (0-20%) | 1 (0-20%) | 2 (21-40%) | 2 (21-40%) | 1 (0-20%) | 1 (0-20%) | 2 (21-40%) | – | –
2 | FC(F)c1cc(Cc2ncc(Cl)cn2)n(CCCC(F)(F)F)n1 [Compound 1.002] | 1 (0-20%) | 2 (21-40%) | 1 (0-20%) | 2 (21-40%) | 5 (81-100%) | 5 (81-100%) | 1 (0-20%) | 3 (41-60%) | – | –
3 | FC(F)c1cc(Cc2ncc(Cl)cn2)n(CCC2CC2)n1 [Compound 1.003] | 1 (0-20%) | 1 (0-20%) | 1 (0-20%) | 3 (41-60%) | 4 (61-80%) | 4 (61-80%) | 1 (0-20%) | 1 (0-20%) | – | –
4 | FC(F)CCCn1nc(C(F)F)cc1Cc1ncc(Cl)cn1 [Compound 1.004] | 3 (41-60%) | 3 (41-60%) | 1 (0-20%) | 2 (21-40%) | 4 (61-80%) | 4 (61-80%) | 1 (0-20%) | 2 (21-40%) | – | –
5 | FC(F)CCCn1nc(C(F)(F)F)cc1Cc1ncc(Cl)cn1 [Compound 1.005, 5-chloro-2-[[2-(4,4-difluorobutyl)-5-(trifluoromethyl)pyrazol-3-yl]methyl]pyrimidine] | – | 5 (81-100%) | 4 (61-80%) | 3 (41-60%) | 5 (81-100%) | 5 (81-100%) | 4 (61-80%) | 5 (81-100%) | 4 (61-80%) | 5 (81-100%)
6 | FC(F)(F)CCCn1nc(C(F)(F)F)cc1Cc1ncc(Cl)cn1 [Compound 1.006] | 5 (81-100%) | 5 (81-100%) | 3 (41-60%) | 3 (41-60%) | 5 (81-100%) | 5 (81-100%) | 4 (61-80%) | 3 (41-60%) | 4 (61-80%) | 5 (81-100%)
7 | FC(F)c1cc(Cc2ncc(Cl)cn2)n(CCC(F)(F)F)n1 [Compound 1.007] | 3 (41-60%) | 4 (61-80%) | 2 (21-40%) | 3 (41-60%) | 5 (81-100%) | 5 (81-100%) | 2 (21-40%) | 4 (61-80%) | – | –
8 | FC(F)CCn1nc(C(F)F)cc1Cc1ncc(Cl)cn1 [Compound 1.008] | 3 (41-60%) | 3 (41-60%) | 1 (0-20%) | 4 (61-80%) | 5 (81-100%) | 5 (81-100%) | 4 (61-80%) | 3 (41-60%) | 1 (0-20%) | 4 (61-80%)
9 | FC(F)(F)CCn1nc(C(F)(F)F)cc1Cc1ncc(Cl)cn1 [Compound 1.010] | 4 (61-80%) | 5 (81-100%) | 4 (61-80%) | 3 (41-60%) | 5 (81-100%) | 5 (81-100%) | 5 (81-100%) | 5 (81-100%) | – | –
10 | CCCCn1nc(C(F)F)cc1Cc1ncc(Cl)cn1 [Compound 1.011] | 2 (21-40%) | 2 (21-40%) | 1 (0-20%) | 2 (21-40%) | 5 (81-100%) | 5 (81-100%) | 2 (21-40%) | 3 (41-60%) | – | –
11 | CCCCn1nc(C(F)F)cc1Cc1ncc(Cl)cc1F [Compound 1.013] | 2 (21-40%) | 2 (21-40%) | 1 (0-20%) | 2 (21-40%) | 3 (41-60%) | 4 (61-80%) | 3 (41-60%) | 2 (21-40%) | 1 (0-20%) | 3 (41-60%)
12 | Fc1cc(Cl)cnc1Cc1cc(C(F)(F)F)nn1CCC(F)(F)F [Compound 1.018] | 4 (61-80%) | 1 (0-20%) | 4 (61-80%) | 4 (61-80%) | 5 (81-100%) | 5 (81-100%) | 5 (81-100%) | 3 (41-60%) | 4 (61-80%) | 5 (81-100%)
